In patent publication US6334996B1, “Chelators that predominantely form a single stereoisomeric species upon coordination to a metal center” (Resolution Pharmaceuticals Inc., priority 1997, dated 2002):

Key:
[1] = humans; cited from earlier work
[2] = log D of the metal complexes; type: physicochemical; details: ^99mTc complex

Row | logD [2] | Compound | excreted at 30 minutes [1]
1 |  | Tc complex of 2,3-bis(mercaptoacetamide)propanoate [syn isomer of the Tc complex of 2,3-bis(mercaptoacetamide)propanoate (map)] | 58%
2 | -1.3 | CN(C)CC(=O)N[C@H](C(=O)N[C@@H](CS)C(=O)NCC(=O)O)C(C)(C)C [^99mTc complex of dimethylglycine-t-butylglycine-cysteine-glycine, metal not drawn] | 
3 | -2.3 | CN(C)CC(=O)N[C@@H](CO)C(=O)N[C@@H](CS)C(=O)NCC(=O)O [^99mTc complex of dimethylglycine-serine-cysteine-glycine, metal not drawn] | 
4 |  | Tc complex of 2,3-bis(mercaptoacetamide)propanoate [anti isomer of the Tc complex of 2,3-bis(mercaptoacetamide)propanoate (map)] | 19%
